The values that follow come from article PMC3913620, “Preclinical Evaluation of the Novel, Orally Bioavailable Selective Inhibitor of Nuclear Export (SINE) KPT-335 in Spontaneous Canine Cancer: Results of a Phase I Study” (PLoS ONE, 2014).

The test system of one data set is Jurkat cells. Kind of data set: MTS cell viability assay, Jurkat. The data set is classed as cell-based, human. Conditions: Homo sapiens, Jurkat, 72 hours, read-out: IC50 (± S.D.), Jurkat. As for the experimental part: Cryopreserved tumor cells obtained from sterile lymph node biopsy samples from dogs with diffuse large B cell lymphoma (DLBCL) were cultured with 100 ng/mL of megaCD40L (Enzo Life Science, Plymouth Meeting, PA) as previously described, [27]. The human T-cell leukemia cell line, Jurkat, was from the American Type Culture Collection (ATCC, Manassas, VA) and cultured in RPMI1640 medium (Gibco/BRL, Grand Island, NY) containing 10% fetal bovine serum (FBS; Atlas Biologicals, Fort Collins, CO), 2-mercaptoethanol (Gibco/BRL), HEPES, L-glutamine, sodium pyruvate (Mediatech Inc., Manassas, VA), non-essential amino acids (Sigma Aldrich, St. Louis, MO), and Primocin (Invivogen, San Diego, CA). The canine DLBCL cell line CLBL1 obtained from Dr. Barbara Rütgen (University of Vienna, Austria), [29] and human DLBCL cell lines OCI-Ly3 [30], [31] and OCI-Ly10 [32] obtained from Dr. Anne Novak (Mayo Clinic Cancer Center, Rochester, MN) were cultured in complete Iscove’s Modified Dulbecco’s medium (IMDM) containing 20% FBS, L-glutamine, and Primocin. All cells were maintained at 37°C in a humidified 5% CO2 atmosphere. The following additional canine tumor cell lines were used to evaluate response to SINE compounds: C2, mast cell tumor line provided by Dr. George Caughey, UCSF, San Francisco, CA [33]; OSA16, osteosarcoma cell line, provided by Dr. Jaime Modiano, UM, Minneapolis, MN [34]; and 323610-3, malignant melanoma cell line, provided by Dr. Michael Kent, UCD, Davis, CA [35]. […]
(§1) Cell viability for lymphoid lines was determined by the MTS (3-(4, 5-dimethylthiazol-2-yl)-5-(3-carboxymethoxyphenyl)-2-(4-sulfophenyl)-2H-tetrazolium) assay using CellTiter 96® AQueous One Solution Cell Proliferation Assay Kit (Promega, Madison, WI). […] After 72 hours, 20 µL of MTS solution was added to each well and cells were incubated for another 4 hours before measuring absorbance at 490 nm using a Wallac Victor 1420 Multilabel Counter (Perkin Elmer, Waltham, MA). The IC50 of SINE was calculated using Prism 6 software (GraphPad Software, Inc., La Jolla, CA).
For orientation: Formazan colour is commonly taken as a measure of viable cells.

Another data set relates to OCI-Ly3 DLBCL cells. Kind of data set: MTS cell viability assay, OCI-Ly3. The data set is classed as cell-based, human. Conditions: Homo sapiens, OCI-Ly3, 72 hours, read-out: IC50 (± S.D.), OCI-Ly3. How it is done: (§2) Cryopreserved tumor cells obtained from sterile lymph node biopsy samples from dogs with diffuse large B cell lymphoma (DLBCL) were cultured with 100 ng/mL of megaCD40L (Enzo Life Science, Plymouth Meeting, PA) as previously described, [27]. The human T-cell leukemia cell line, Jurkat, was from the American Type Culture Collection (ATCC, Manassas, VA) and cultured in RPMI1640 medium (Gibco/BRL, Grand Island, NY) containing 10% fetal bovine serum (FBS; Atlas Biologicals, Fort Collins, CO), 2-mercaptoethanol (Gibco/BRL), HEPES, L-glutamine, sodium pyruvate (Mediatech Inc., Manassas, VA), non-essential amino acids (Sigma Aldrich, St. Louis, MO), and Primocin (Invivogen, San Diego, CA). […]
as §1

The next data set relates to OCI-Ly10 DLBCL cells. Kind of data set: MTS cell viability assay, OCI-Ly10. The data set is classed as cell-based, human. The following applies: Homo sapiens, OCI-Ly10, 72 hours, read-out: IC50 (± S.D.), OCI-Ly10. As for the experimental part: as §2, §1
The next data set has as its system CLBL1 DLBCL cells. Kind of data set: MTS cell viability assay, CLBL1. It counts as cell-based, canine. The following applies: Canis lupus familiaris, CLBL-1, 72 hours, read-out: IC50 (± S.D.), CLBL1. How it is done:
as §2, §1

Data set [1] has as its system primary canine DLBCL cells. Kind of data set: MTS cell viability assay, primary canine DLBCL samples. It counts as cell-based. Conditions: Canis lupus familiaris, primary sample #1, 72 hours, read-out: IC50, DLBCL#1. How it is done: Cryopreserved tumor cells obtained from sterile lymph node biopsy samples from dogs with diffuse large B cell lymphoma (DLBCL) were cultured with 100 ng/mL of megaCD40L (Enzo Life Science, Plymouth Meeting, PA) as previously described, [27]. The human T-cell leukemia cell line, Jurkat, was from the American Type Culture Collection (ATCC, Manassas, VA) and cultured in RPMI1640 medium (Gibco/BRL, Grand Island, NY) containing 10% fetal bovine serum (FBS; Atlas Biologicals, Fort Collins, CO), 2-mercaptoethanol (Gibco/BRL), HEPES, L-glutamine, sodium pyruvate (Mediatech Inc., Manassas, VA), non-essential amino acids (Sigma Aldrich, St. Louis, MO), and Primocin (Invivogen, San Diego, CA). The canine DLBCL cell line CLBL1 obtained from Dr. Barbara Rütgen (University of Vienna, Austria), [29] and human DLBCL cell lines OCI-Ly3 [30], [31] and OCI-Ly10 [32] obtained from Dr. Anne Novak (Mayo Clinic Cancer Center, Rochester, MN) were cultured in complete Iscove’s Modified Dulbecco’s medium (IMDM) containing 20% FBS, L-glutamine, and Primocin. All cells were maintained at 37°C in a humidified 5% CO2 atmosphere. The following additional canine tumor cell lines were used to evaluate response to SINE compounds: C2, mast cell tumor line provided by Dr. George Caughey, UCSF, San Francisco, CA [33]; OSA16, osteosarcoma cell line, provided by Dr. Jaime Modiano, UM, Minneapolis, MN [34]; and 323610-3, malignant melanoma cell line, provided by Dr. Michael Kent, UCD, Davis, CA [35]. All cell lines were cultured in complete RPMI media containing 10% FBS, antibiotic/antimycotic, HEPES, sodium pyruvate, nonessential amino acids and Glutamax (media supplements from Gibco).
Cell viability for lymphoid lines was determined by the MTS (3-(4, 5-dimethylthiazol-2-yl)-5-(3-carboxymethoxyphenyl)-2-(4-sulfophenyl)-2H-tetrazolium) assay using CellTiter 96® AQueous One Solution Cell Proliferation Assay Kit (Promega, Madison, WI). Briefly, for lymphoid cell lines, 5×10^4 cells (or 1×10^5 primary DLBCL cells) were cultured in 100 µL of complete medium in 96-well plates in the presence of SINE compounds. After 72 hours, 20 µL of MTS solution was added to each well and cells were incubated for another 4 hours before measuring absorbance at 490 nm using a Wallac Victor 1420 Multilabel Counter (Perkin Elmer, Waltham, MA). The IC50 of SINE was calculated using Prism 6 software (GraphPad Software, Inc., La Jolla, CA).

In the next data set the test system is CLBL1 cells. Kind of data set: Annexin V apoptosis assay (flow cytometry), CLBL1. It counts as cell-based, canine. Conditions: CLBL1, 100 nM, 24 hours.
Data set [2] in a line: Single oral dose pharmacokinetics in healthy dogs. The data set is classed as in vivo. Conditions: male, beagle, dog, plasma, 1.5 mg/kg single oral dose, fed, 6 dogs. As for the experimental part: KPT-335 was administered as a single oral dose in capsule formulation to 6 male beagle dogs at approximately 1.5 mg/kg following a meal. Serial blood samples were collected from each dog prior to dosing and at 0.25, 0.5, 1, 2, 4, 6, 8, 12, 18, 24 and 48 hours post-dose and placed into tubes containing K2EDTA. Blood samples were stored on wet ice until processed to plasma by centrifugation at 3500 rpm for 10 minutes at 5°C. Plasma samples were stored in at −80°C until analysis at Agilux Laboratories (Worcester, MA). Plasma samples were analyzed for parent drug concentration using sample preparation by protein precipitation and then analysis by LC-MS/MS using propranolol as the internal standard. The method was qualified for use (a single batch to assess method performance: precision and accuracy; linearity of dilution; and matrix specificity) prior to initiation of sample analysis. Acceptance criteria for calibration standards and quality control samples were within ±30% nominal concentration. Individual animal pharmacokinetic parameter values were derived by the pharmacokinetic analysis program Phoenix WinNonlin version 6.3 (Pharsight Corporation), using the non-compartmental Model 200 with uniform weighting. The single-dose pharmacokinetic parameters assessed include: Cmax (maximum concentration observed); Tmax (time of observed maximum concentration); AUC0→∞ (area under the concentration-time curve from time zero extrapolated to infinity); AUC0→last (area under the concentration-time curve from time zero to the time of the last quantifiable concentration); and t1/2 (terminal half life). Descriptive statistical data (mean, standard deviation, and standard error of the mean) were calculated from the unrounded numbers in an Excel (Microsoft) spreadsheet. Concentration results, means, and calculated parameters were reported to 3 significant figures.

Data set [3] relates to canine melanoma cell lines. Kind of data set: Proliferation and viability of canine melanoma cell lines (data not shown). Conditions: Canis lupus familiaris, read-out: IC50 concentrations, canine melanoma cell lines. It counts as cell-based.
The nature of another data set: Oral bioavailability. It counts as in vivo. Conditions: normal laboratory dogs.
For data set [4] the following is noted: dog, in vivo.
Data set [5] in a line: Tolerability in normal laboratory dogs (data not shown). Conditions: dog, in vivo.

A word on the Cmax: it is the highest concentration seen after dosing. By Tmax is commonly meant the time from dosing to the highest level. As usually defined, the AUC is the area under the concentration-time curve, a measure of exposure. One may read the AUC(0-inf) as total exposure, with the tail of the curve extrapolated. Lower therefore signals less exposure. In general, MTD refers to the highest dose tested that stayed within the study's limit of toxicity.

Regarding `O=C(/C=C\n1cnc(-c2cc(C(F)(F)F)cc(C(F)(F)F)c2)n1)NNc1ccccn1` [KPT-335], the IC50 is 0.3 nM in the data set on Jurkat cells; 2.1 ± 1.3 nM in the data set with OCI-Ly3 DLBCL cells; 41.8 ± 21 nM with OCI-Ly10 DLBCL cells; 8.5 ± 4.1 nM with CLBL1 DLBCL cells; 2 nM in data set [1]; 95 to 290 nM in data set [3]. Further, in the data set on CLBL1 cells, the “apoptotic cells (Annexin V+ cells) compared to mock treated cells” value is listed as “increased apoptotic cells”. In data set [2] (po, 1.5 mg/kg, capsule), this compound returned a Cmax of roughly 250 ng/mL. The Tmax in data set [2] (po, 1.5 mg/kg, capsule) is roughly 4 h. Moreover, in data set [2], the AUC is 1800 ng·h/mL. In data set [2] (capsule), this compound gave an AUC(0-inf) of 1810 ng·h/mL. The AUC(0-t) in data set [2] (capsule, read-out: AUC0-last, mean) was 1760 ng·h/mL. For the same compound, in data set [2] (capsule, read-out: t1/2, mean (converted)), the half-life is 3.88 h. Besides, the oral bioavailability entry in “Oral bioavailability” is on record as “excellent oral bioavailability”. For the same compound, the tolerable doses result in data set [4] is reported as “below 3 mg/kg”. The same compound registered an MTD in data set [5] of 2 mg/kg.
